“Also recorded” adds a separate entry of the source. Square brackets hold non-standard residues; d marks the D form. Ends that are not written are not given here. Peptide text beside a SMILES is read from it. * marks the point of attachment. Sta = CC(C)C[C@H](N)[C@@H](O)CC(=O)O; Isovaleryl = CC(C)CC(=O)*
Assays:
[1] = system: tNhtt-16Q; assay: Western blot of tNhtt-16Q levels in inducible Neuro2a cells; format: cell-based, human; conditions: inducible 16Q Neuro2a cells, transfection
Protocol: (§1) Mouse neuroblastoma (Neuro2a) cells were maintained in Dulbecco's modified Eagle's medium (Sigma) supplemented with 10% heat-inactivated fetal bovine serum (Sigma), 100 U/ml penicillin and 100 μg/ml streptomycin (Invitrogen) at 37° C. in an atmosphere containing 5% CO2 and 95% air. Establishment of stable Neuro2a cell lines with the ecdysone-inducible mammalian expression system (Invitrogen), that express tNhtt-EGFP-16Q (16Q Neuro2a cells), tNhtt-EGFP-150Q (150Q Neuro2a cells) and tNhtt-EGFP-150Q-nls (150Q-nls Neuro2a cells) has been described earlier (T. Nagai et al., supra, H. Doi et al., supra, E. A. Zemskov et al., J Neurochem. 87, 2 (2003)). Neuro2a cells were differentiated with 5mM dbcAMP (N^6, 2′-O-dibutyryladenosine-3′,5′-cyclic monophosphate sodium salt) (Nacalai Tesque) and induced to express tNhtt-polyQ with 2 μM ponasterone A (ponA; Invitrogen) for indicated times. Neuro2a/FRT/TR cell line was generated as described in the protocol for Flp-in/T-Rex system (Invitrogen). […]
(§2) Cells were washed twice with ice-cold PBS, scraped, and resuspended in lysis buffer (0.5% Triton X-100 in PBS, 0.5 mM phenylmethylsulfonyl fluoride, Complete protease inhibitor mixture (Roche Applied Sciences)). […] Immunoreactive proteins were detected with enhanced chemiluminescence reagents (Amersham Biosciences). […]

[2] = system: polyQ inclusions in 150Q Neuro2a cells; assay: Confocal imaging of tested constructs in 150Q Neuro2a cells; format: cell-based, mouse
Protocol: as §1, with “(Invitrogen). Neuro2a tNhtt-62Q-kikGR cell line was generated by transfecting Neuro2a/FRT/TR cells with the pFRT-HD62-KikGR and pOG44 (Invitrogen) constructs using Lipofectamine 2000 reagent and selected with 200 μg/ml hygromycin. The expression of the pFRT-tNhtt-62Q-KikGR was induced by 18 doxycycline treatment of the cells. For the photo-induced kikGR cleavage, cells were exposed to ˜400 nm wavelength for 5 minutes.” for “(Invitrogen).”

[3] = target: T1, tNhtt-150Q (Homo sapiens, UniProt P42858); assay: Western blot of polyQ aggregation (gel top) in 150Q Neuro2a cells; format: cell-based; conditions: expression of mRFP-tagged constructs
T1 construct: N-terminal fragment of human huntington exon 1 (tNhtt); expressed in transfected cells
T1 sequence (P42858 with tags, fused parts or gaps): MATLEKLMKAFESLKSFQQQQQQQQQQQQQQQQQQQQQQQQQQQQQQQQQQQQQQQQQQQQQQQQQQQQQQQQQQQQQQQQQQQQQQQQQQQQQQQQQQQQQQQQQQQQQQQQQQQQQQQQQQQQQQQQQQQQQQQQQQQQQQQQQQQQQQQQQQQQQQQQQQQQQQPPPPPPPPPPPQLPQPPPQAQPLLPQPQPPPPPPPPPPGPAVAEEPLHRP
Protocol: as §1, §2

[4] = system: polyQ inclusions in 150Q Neuro2a cells (tNhtt-EGFP-150Q); assay: ArrayScan quantification of polyQ inclusion formation in inducible 150Q Neuro2a cells; format: cell-based, mouse; conditions: for decrease of inclusion formation: mRFP-tagged constructs, after 24 hours of differentiation and induction
Protocol: (§3) Mouse neuroblastoma (Neuro2a) cells were maintained in Dulbecco's modified Eagle's medium (Sigma) supplemented with 10% heat-inactivated fetal bovine serum (Sigma), 100 U/ml penicillin and 100 μg/ml streptomycin (Invitrogen) at 37° C. in an atmosphere containing 5% CO2 and 95% air. Establishment of stable Neuro2a cell lines with the ecdysone-inducible mammalian expression system (Invitrogen), that express tNhtt-EGFP-16Q (16Q Neuro2a cells), tNhtt-EGFP-150Q (150Q Neuro2a cells) and tNhtt-EGFP-150Q-nls (150Q-nls Neuro2a cells) has been described earlier (T. Nagai et al., supra, H. Doi et al., supra, E. A. Zemskov et al., J Neurochem. 87, 2 (2003)). Neuro2a cells were differentiated with 5mM dbcAMP (N^6, 2′-O-dibutyryladenosine-3′,5′-cyclic monophosphate sodium salt) (Nacalai Tesque) and induced to express tNhtt-polyQ with 2 μM ponasterone A (ponA; Invitrogen) for indicated times. Neuro2a/FRT/TR cell line was generated as described in the protocol for Flp-in/T-Rex system (Invitrogen). Neuro2a tNhtt-62Q-kikGR cell line was generated by transfecting Neuro2a/FRT/TR cells with the pFRT-HD62-KikGR and pOG44 (Invitrogen) constructs using Lipofectamine 2000 reagent and selected with 200 μg/ml hygromycin. The expression of the pFRT-tNhtt-62Q-KikGR was induced by 18 doxycycline treatment of the cells. For the photo-induced kikGR cleavage, cells were exposed to ˜400 nm wavelength for 5 minutes. Rat pheochromocytoma (PC12) cells were grown in the same conditions as Neuro2a cells, except for the serum composition of 5% of fetal bovine and 10% of horse serum (Sigma). All transient transfections were performed with Lipofectamine 2000 (Invitrogen) according to the manufacturer's instruction.
(§4) For the quantification of the inclusions, cells were grown in 24-well plates for indicated periods, fixed in 4% paraformaldehyde, washed and incubated with Hoechst 33258 at 1/1000 dilution in PBS. Cells were analyzed by ArrayScan® V^TI High Content Screening (HSC) Reader (Cellomics) using Target Activation BioApplication (TABA). TABA analyzes images acquired by a HSC Reader and provides measurements of the intracellular fluorescence intensity and localization on a cell-by-cell basis.
(§5) In each well, at least 10000 cells were counted and quantified for the presence of the inclusions. Nuclei stained with Hoechst 33285 provided the autofocus target and their count gave the exact number of the quantified cells. The screening itself consisted of two scans using Hoechst, FITC (for GFP) and TRITC (for RFP) fluorescence. Firstly, number of inclusions in transfected cells was calculated when fluorescent spots at size of at least 5 pixels (magnification 20× for cytoplasmic and 40× for nuclear aggregates) with average GFP intensity more than 1500 in the RFP background were counted. Secondly, nuclei were defined as the objects of interest and the cells with average intensity more than 50 within 3 pixels from the nucleus were selected for the analysis. The percentage of the cells with aggregates was then calculated. When the constructs without mRFP were used for transfection, the procedure was same, except the RFP intensity was not measured. Scanning was performed with triplicate or quadruplicate in each experimental condition. Data was generated from the quantification of more than 250,000 cells in each experimental set-up.

[5] = system: polyQ inclusions in 150Q-nls Neuro2a cells (tNhtt-EGFP-150Q-nls); assay: ArrayScan quantification of polyQ inclusion formation in inducible 150Q-nls Neuro2a cells; format: cell-based, mouse; conditions: for decrease of the polyQ inclusion formation: 150Qnls Neuro2a cells, mRFP-tagged constructs, after 48 hours of differentiation and induction
Protocol: as §3, with “Rat pheochromocytoma (PC12) cells were grown in the same conditions as Neuro2a cells, except for the serum composition of 5% of fetal bovine and 10% of horse serum (Sigma). All transient transfections were performed with Lipofectamine 2000 (Invitrogen) according to the manufacturer's instruction.” left out
as §4
as §5, with “Secondly, nuclei were defined as the objects of interest and the cells with average intensity more than 50 within 3 pixels from the nucleus were selected for the analysis.” left out, “Scanning was performed with triplicate or quadruplicate in each experimental condition.” left out

[6] = system: PC12 cells; assay: Inclusion formation of tNhtt-60Q-Venus with or without HSC70bm in PC12 cells; format: cell-based, rat; conditions: 10 mM 3MA, 10 μM pepstatin A
Protocol: The tNhtt-16Q-EGFP and tNhtt-150Q-EGFP plasmids for transient transfection were prepared by the introduction of the coding sequence into pcDNA3.1 vector (Invitrogen). […] HSC70bm were amplified with primers containing SalI in the forward and XmaI cutting site in the reverse primer from the 60QHsc construct. […] To produce molecules without mRFP tag, all constructs were amplified using primers containing BamHI in the forward and XbaI in the reverse primer, respectively, and introduced to pcDNA3.1 vector.
Rat pheochromocytoma (PC12) cells were grown in the same conditions as Neuro2a cells, except for the serum composition of 5% of fetal bovine and 10% of horse serum (Sigma). […]
In each well, at least 10000 cells were counted and quantified for the presence of the inclusions. […] The screening itself consisted of two scans using Hoechst, FITC (for GFP) and TRITC (for RFP) fluorescence. […] The percentage of the cells with aggregates was then calculated. When the constructs without mRFP were used for transfection, the procedure was same, except the RFP intensity was not measured. […]

[7] = system: 150Q-nls Neuro2a cells; assay: Cell death assay (propidium iodide uptake) in 150Q-nls Neuro2a cells; format: cell-based, mouse; conditions: after 48 hours of induction
Protocol: as §1
(§6) For quantification of cell death, 5 μg/ml each of Hoechst 33342 and propidium iodide (PI) were added to differentiated and induced Neuro2a cells transiently transfected with either of the tested constructs (FIG. 6A). After 10 minutes at 37° C., the number of cells with PI uptake over the total number of cells was calculated by ArrayScan.

[8] = system: 150Q Neuro2a cells; assay: Cell death assay (propidium iodide uptake) in 150Q Neuro2a cells; format: cell-based, mouse; conditions: after 60 hours of induction
Protocol: as §1, §6

[9] = target: T2, tNhtt-150Q polyQ protein (Homo sapiens, UniProt P42858); assay: Chase experiment in 150Q Neuro2a cells (Western blot); format: cell-based
T2 construct: N-terminal fragment of human huntington exon 1 (tNhtt); expressed in transfected cells
T2 sequence (P42858 with tags, fused parts or gaps): as above
Protocol: (§7) To determine whether tNhtt-polyQ degrades faster in the presence of RHQ, chase experiments were performed. Neuro2a were first induced to express tNhtt-polyQ for 20 hrs in case of 60Q and 12 hrs in case of 150Q cells and then transfected with the tested constructs. Four hours later, ponaA was removed; cells were washed with PBS and incubated in the medium containing dbcAMP (for differentiation) for 24 hrs. Cells were lysed and the levels of tNhtt-polyQ were analyzed by Western blotting.
(§8) Cells were washed twice with ice-cold PBS, scraped, and resuspended in lysis buffer (0.5% Triton X-100 in PBS, 0.5 mM phenylmethylsulfonyl fluoride, Complete protease inhibitor mixture (Roche Applied Sciences)). After incubating on ice for 30 minutes lysates were briefly sonicated. Equal amounts of protein were boiled for 5 minutes in 2× SDS-sample buffer, separated by 5-12% gradient SDS-PAGE and electrophoretically transferred to a polyvinylidene difluoride (PVDF) membrane (Millipore). The membranes were blocked in 5% skim milk in 0.05% Tween 20/Tris-buffered saline (TBST) and incubated with primary antibody (dilutions in accordance to manufacturer's recommendations) overnight at […]. […] Immunoreactive proteins were detected with enhanced chemiluminescence reagents (Amersham Biosciences). […]

[10] = target: T3, soluble tNhtt-60Q protein (Homo sapiens, UniProt P42858, INS38QQQQQQQQQQQQQQQQQQQQQQQQQQQQQQQQQQQQQQQ); assay: Chase experiment in 60Q Neuro2a cells (Western blot); format: cell-based; conditions: after 24 hours chase
T3 construct: N-terminal fragment of human huntington exon 1 (tNhtt) encoding 60 CAG repeats; expressed in transfected cells; host or cells: 60Q Neuro2a cells (mouse neuroblastoma), ponasterone A induced
T3 sequence (P42858 with tags, fused parts or gaps with the stated changes): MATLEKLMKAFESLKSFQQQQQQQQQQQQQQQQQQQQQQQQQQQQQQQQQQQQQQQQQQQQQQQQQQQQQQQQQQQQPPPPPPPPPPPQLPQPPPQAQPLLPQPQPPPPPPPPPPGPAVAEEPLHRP
Protocol: as §7, §8

[11] = target: T4, tNhtt-62Q-kikGR protein (Homo sapiens, UniProt P42858, INS38QQQQQQQQQQQQQQQQQQQQQQQQQQQQQQQQQQQQQQQQQ); assay: Chase experiment in tNhtt-62Q-kikGR Neuro2a cells after photo-cleavage; format: cell-based; conditions: twelve hours after irradiation
T4 construct: inserting the htt exon 1 with 62Q (HD62); monomeric KikGR (mKikGR; KikGR BAD95669 with A17S, G32R, I37T, N39T, C116T, V126T, N161E, Q167E, H219Y, L222T, P223Y) (C); expressed in transfected cells; host or cells: Neuro2a/FRT/TR cells (Flp-in/T-Rex), doxycycline induced
T4 sequence (P42858 with tags, fused parts or gaps with the stated changes): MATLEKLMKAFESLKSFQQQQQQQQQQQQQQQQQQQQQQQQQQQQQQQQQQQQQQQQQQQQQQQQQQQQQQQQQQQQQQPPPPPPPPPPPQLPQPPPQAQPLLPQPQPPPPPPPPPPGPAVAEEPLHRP
Protocol: as §1, with “(2003)).” for “(2003)). Neuro2a cells were differentiated with 5mM dbcAMP (N^6, 2′-O-dibutyryladenosine-3′,5′-cyclic monophosphate sodium salt) (Nacalai Tesque) and induced to express tNhtt-polyQ with 2 μM ponasterone A (ponA; Invitrogen) for indicated times. Neuro2a/FRT/TR cell line was generated as described in the protocol for Flp-in/T-Rex system (Invitrogen).”
Neuro2a tNhtt-62Q-kikGR cells were induced for 24 hours, and then the 62Q-kikGR was cleaved by 5 minutes irradiation of the cells. Chase phase lasted for 12 hours before the cells were collected and analyzed.
as §2

Molecule | levels of tNhtt-16Q [1] | localization relative to polyQ inclusions [2] | polyQ aggregation (gel top) [3] | decrease of inclusion formation [4] [%] | decrease of the polyQ inclusion formation [5] [%] | influence of inhibitor on the effect of HSC70bm on 60Q aggregation [6] | further results
mRFP-(QBP1)2 (MSNWKWWPGIFDSNWKWWPGIFD; also: fused to mRFP) [RQ, monomeric red fluorescent protein fused to (QBP1)2, reference compound] | not affected | co-localized with the polyQ inclusions | markedly decreased | 38 | 21.5 | – | –
CC(C)CC(=O)N[C@H](C(=O)N[C@H](C(=O)N[C@@H](CC(C)C)[C@@H](O)CC(=O)N[C@@H](C)C(=O)N[C@@H](CC(C)C)[C@@H](O)CC(=O)O)C(C)C)C(C)C [pepstatin A] (Isovaleryl-VV[Sta]A[Sta]-OH) | – | – | – | – | – | alleviated the effect of HSC70bm | –
(QBP1)2 (MSNWKWWPGIFDSNWKWWPGIFD) [reference compound] | – | – | – | – | – | – | decrease of the percentage of PI-positive cells [7]: 17.7%; decrease of aggregation compared to control counterparts (S and HS) ([4]; constructs without mRFP, induced and differentiated for 24 hours): 32.6%; reduction of aggregation compared to control counterparts (S and HS) ([5]; 150Q-nls Neuro2a cells, constructs without mRFP, 48 hours after induction): 24.7%; decrease of the percentage of PI-positive cells [8]: 12.3%
mRFP-HSC70bm-(QBP1)2 (MARVKKDQAEPLHRKFERQPPGSNWKWWPGIFDSNWKWWPGIFD; also: fused to mRFP) [RHQ] | not affected | co-localized with the polyQ inclusions | much stronger effect; also recorded: markedly decreased | 56.5 | 48.5 | – | clearance of aggregated and soluble polyQ ([9]; autophagy activation by serum withdrawal): almost complete clearance; degradation of the polyQ protein ([9]; chase 24 hours): enhanced degradation; enhancement of degradation of soluble tNhtt-60Q protein as compared to R [10]: 43%; enhancement of degradation of soluble tNhtt-60Q protein as compared with RQ [10]: 37.4%; decrease of full length (constitutively expressed) tNhtt-62Q-kikGR as compared to RQ [11]: 24%; decrease of levels of the cleaved form of tNhtt-62Q-kikGR protein as compared to RQ [11]: 45.6%; effect on polyQ aggregation after silencing of HSC70 and/or Lamp2a with shRNA ([4]; any knock-down combination): inhibited
Cn1cnc(N)c2ncnc1-2 [3MA, 3-methyladenine] | – | – | – | – | – | did not | –

Source: patent publication US20100016221A1, “METHOD OF DEGRADING PROTEIN BY CHAPERONE-MEDIATED AUTOPHAGY” (RIKEN, priority 2008, published 2010)
